Measured values as given in patent publication US20250250265A1, “BENZOTHIAZOLE-PHENYLSULFONYL-PIPERIDINE ANALOGS AS ACTIVATORS OF NACYLPHOSPHATIDYLETHANOLAMINE HYDROLYZING PHOSPHOLIPASE D” (priority 2022, published 2025).
Where two headings read alike, the source gives them in different places.

Key:
[1] = molecular target: T1, NAPE-PLD activity of RAW264.7 macrophages (Mus musculus, UniProt Q8BH82); experiment: Cell-based NAPE-PLD activity in RAW264.7 macrophages (PED-A1 with orlistat)
T1 construct: endogenous in cells; host or cells: RAW264.7
T1 sequence (Q8BH82 1-396): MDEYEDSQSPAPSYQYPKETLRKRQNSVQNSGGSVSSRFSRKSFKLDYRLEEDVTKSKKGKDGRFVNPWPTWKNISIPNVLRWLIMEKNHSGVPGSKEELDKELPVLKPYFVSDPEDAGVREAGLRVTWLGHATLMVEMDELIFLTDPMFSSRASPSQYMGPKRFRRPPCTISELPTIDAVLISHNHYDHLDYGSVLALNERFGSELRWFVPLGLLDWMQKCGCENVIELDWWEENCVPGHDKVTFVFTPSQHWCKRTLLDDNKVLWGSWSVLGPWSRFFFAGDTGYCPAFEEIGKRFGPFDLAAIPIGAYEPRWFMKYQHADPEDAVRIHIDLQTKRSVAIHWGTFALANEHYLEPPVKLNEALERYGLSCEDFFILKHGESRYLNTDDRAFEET
Description: NAPE-PLD activity was measured in cells as previously described, except that FluoroBrite DMEM (Gibco A1896701) was used as media. See Zarrow et al., J. Lipid Res. 63(1): 100156 (2022). For RAW264.7 assays, PED-A1 (3.6 μM final) was used as the substrate with 10 μM orlistat added to inhibit PLA1 activity, while for HepG2 cells, flame-NAPE was used (with no orlistat added).

[2] = molecular target: T2, recombinant mouse NAPE-PLD (Mus musculus, UniProt Q8BH82); experiment: In vitro fluorescence NAPE-PLD activity assay (HTS/CRC) with recombinant mouse NAPE-PLD and PED-A1; type: biochemical; conditions: for Emax (95% Cl): Table 4, maximal efficacy as fold increase in NAPE-PLD activity versus vehicle only
T2 construct: hexahistidine (His6) (C); made in house; host or cells: E. coli
T2 sequence (Q8BH82 1-396): T1 sequence (Q8BH82 1-396)
Description: Using the fluorogenic NAPE substrate, PED-A1, and recombinant mouse NAPE-PLD (rNAPE-PLD), an in vitro high-throughput (HTS) assay was conducted to screen ˜40,000 compounds for their ability to modulate NAPE-PLD activity. The HTS assay enabled the detection of both NAPE-PLD activators and inhibitors. […] Initial structure-activity response studies with the top hits identified benzothiazole phenylsulfonyl-piperidine carboxamide analogs (BT-PSP analogs) as lead compounds for NAPE-PLD activators (Table 1). The lead BT-PSP analog identified, VU534, induces 50% of its activation effect on NAPE-PLD at 270 nM (AC50 270 nM), and induces a maximal effect of 195% of basal NAPE-PLD activity (Table 1).
In vitro fluorescence NAPE-PLD activity assays using recombinant NAPE-PLD and either PED-A1 or flame-NAPE as fluorogenic substrate were performed as previously described except with small modifications as noted below. See Aggarwal et al., J. Biol. Chem. 295(21): 7289-7300 (2020); Zarrow et al., J. Lipid Res. 63(1): 100156 (2022).
For the HTS assays, test compounds were incubated with recombinant enzyme for 1 h prior to adding PED-A1 (final 0.4 μM) mixed with N-palmitoyl-dioleoyl-PE (final 3.6 μM) to adjust for the high sensitivity of the Panoptic instrument (WaveFront Biosciences). Assays used black-wall, clear-bottom, non-sterile, and non-treated 384-well plates (Greiner Bio-One 781906). The assay was read in kinetic fluorescence mode on the Panoptic instrument for 4 min and the slope of the signal from 30-100 s was used for analysis. A total of 39,328 compounds from the Vanderbilt Discovery Collection were tested, each at 10 μM. The tested compounds were chosen to represent a structurally diverse selection from the full library. Each 384-well plate included 320 test compound wells and 64 control wells. Unlike previous pilot screening assays, bithionol (10 μM final) was used in place of lithocholic acid (100 μM final) as the inhibitor control. Before performing high-throughput screening, a checkerboard assay was performed to validate the assay parameters. This yielded a Z′ score of 0.676. Z′ scores were also calculated for each plate during screening, and plates with scores <0.5 were re-run. The average Z′ across all screening plates was 0.52, and the total hit rate was 3.6%. B-scores were calculated from the initial slopes across each plate using WaveGuide software (WaveFront Biosiences). Modulator hits were defined as compounds with absolute B-scores of 3 or higher. The number of compounds in various B-score ranges were as follows: […], 12 compounds; −10 to −5, 221 compounds; −5 to −3, 770 compounds; −3 to 3, 37924 compounds; 3 to 4, 314 compounds; 4 to 6, 70 compounds; 6 to 10, 15 compounds. Activator hits with B-scores of >3 were selected for the replication assay and a selection of analogs of the activators.
Concentration response curve (CRC) experiments used the same assay conditions as the HTS assay, except that graded concentrations of each test compound were used, with total amount of vehicle (DMSO) kept constant. CRC experiments with purified recombinant mouse NAPE-PLD were performed on two separate days, with values from each day normalized to vehicle only controls on same plate, and then all normalized values from both days averaged together. CRC experiments with human NAPE-PLD represent value from only a single day, due to limited amounts of this recombinant enzyme.

[3] = molecular target: T3, NAPE-PLD activity of HepG2 cells (Homo sapiens, UniProt Q6IQ20); experiment: Cell-based NAPE-PLD activity in HepG2 cells (flame-NAPE)
T3 construct: endogenous in cells; host or cells: HepG2
T3 sequence (Q6IQ20 whole entry): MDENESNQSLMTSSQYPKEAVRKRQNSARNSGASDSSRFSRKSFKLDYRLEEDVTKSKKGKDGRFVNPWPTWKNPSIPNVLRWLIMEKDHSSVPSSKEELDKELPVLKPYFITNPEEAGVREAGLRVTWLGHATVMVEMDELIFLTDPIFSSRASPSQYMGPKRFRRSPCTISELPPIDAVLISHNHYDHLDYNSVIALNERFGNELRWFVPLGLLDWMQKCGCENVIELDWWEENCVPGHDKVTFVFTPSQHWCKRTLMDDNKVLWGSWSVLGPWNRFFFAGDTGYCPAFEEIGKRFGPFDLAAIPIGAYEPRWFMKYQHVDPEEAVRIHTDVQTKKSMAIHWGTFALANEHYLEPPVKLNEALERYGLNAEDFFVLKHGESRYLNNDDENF
Method in brief: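 HepG2 cells in FluoroBrite DMEM, NAPE-PLD activity read as hydrolysis of the fluorogenic substrate flame-NAPE, with no orlistat added. Assay otherwise run per a previously described cell-based protocol.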

[4] = system: HepG2 human hepatocytoma cells; experiment: Cytotoxicity (MTT) in HepG2 cells; type: cell-based
Description: Cytotoxicity was measured using MTT as previously described except that the studies used 96-well plates with 100 μL of 0.3 mg/mL MTT solution was added after 24 h of treatment and then replaced after 3 h with 0.1 M HCl in isopropanol. See Aggarwal et al., J. Biol. Chem. 295(21): 7289-7300 (2020). Viability was expressed as percent absorbance at 560 nm relative to vehicle controls.

| SMILES | Emax, Nape-pld activity in RAW264.7 cells ([1]; FIG. 17A, PED-A1) | effect on NAPE-PLD activity in RAW264.7 cells ([1]; graded concentrations (FIG. 17A)) | AC50 (nM) ([2]; Table 1, concentration for 50% maximum activation from basal activity (no activator)) | Max % bA (%) ([2]; Table 1, maximum induced activity compared to basal (100%) activity) | Emax ([2]; Table 2, maximal induced activity for recombinant NAPE-PLD compared to basal (100%), read-out: Emax (%)) | EC50 (μM) ([2]; Table 2, rNAPE-PLD activity assay) | Emax (95% Cl) [2] | Emax, NAPE-PLD activity of HepG2 cells ([3]; FIG. 18B, flame-NAPE) | effect on NAPE-PLD activity in HepG2 cells ([3]; graded concentrations, flame-NAPE) | cytotoxicity in HepG2 cells ([4]; up to / at 30 μM) | In-cell NAPE-PLD activity in RAW 264.7 (10 μM) with PED-A1 or flame-NAPE as substrate ([1]; Table 3, 10 μM) | EC50 ([2]; Table 3, read-out: In vitro EC50) | Emax ([2]; Table 3, read-out: In vitro Emax (100% activity is baseline activity of vehicle only)) | In-cell NAPE-PLD activity in HepG2 (10 μM) with PED-A1 or flame-NAPE as substrate ([3]; Table 3, 10 μM) | % HepG2 viability (33 μM) ([4]; Table 3, 33 μM) |
| --- | --- | --- | --- | --- | --- | --- | --- | --- | --- | --- | --- | --- | --- | --- | --- |
| Cc1ccc(C)c2sc(NC(=O)C3CCN(S(=O)(=O)c4ccc(F)cc4)CC3)nc12 [VU533] | 2.2 fold | significantly increased NAPE-PLD activity | Not active | <120% | < 120% | Inactive | 2.6 (2.6-2.8) fold | 1.6 fold | increased NAPE-PLD activity | no cytotoxicity | – | – | – | – | – |
| Cc1cccc2sc(NC(=O)C3CCN(S(=O)(=O)c4ccc(F)c(Cl)c4)CC3)nc12 [VU209] | – | – | – | – | – | – | 1.9 (1.8-2.1) fold | – | – | – | 136% | 4.7 µM | 179% | 206% | 73% |
